Measured values as given in ChEMBL document CHEMBL1134985, “Design and synthesis of 6-substituted amino-4-oxa-1-azabicyclo[3,2,0]heptan-7-one derivatives as cysteine proteases inhibitors” (Bioorg Med Chem Lett, 2002).

Key:
Cathepsin B = Cathepsin B (Homo sapiens, UniProt P07858); experiment: In vitro Inhibitory activity against Cathepsin B cysteine protease by using Cbz-Phe-Arg-AMC
Cathepsin K = molecular target: T1, Cathepsin K (Homo sapiens, UniProt P43235); experiment: In vitro Inhibitory activity against Cathepsin K cysteine protease by using Cbz-Phe-Arg-AMC
T1 sequence (P43235 whole entry): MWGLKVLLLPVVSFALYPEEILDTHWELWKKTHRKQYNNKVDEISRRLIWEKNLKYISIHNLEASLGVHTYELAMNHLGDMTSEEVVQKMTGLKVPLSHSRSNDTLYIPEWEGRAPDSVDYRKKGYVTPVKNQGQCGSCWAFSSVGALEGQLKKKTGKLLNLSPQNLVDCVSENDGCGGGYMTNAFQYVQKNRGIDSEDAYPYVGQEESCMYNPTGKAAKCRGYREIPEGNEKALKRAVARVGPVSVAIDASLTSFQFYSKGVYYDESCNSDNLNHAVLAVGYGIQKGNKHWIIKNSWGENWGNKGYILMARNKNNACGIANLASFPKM

Procathepsin L = molecular target: T2, Procathepsin L (Rattus norvegicus, UniProt P07154); experiment: In vitro Inhibitory activity against Cathepsin L cysteine protease by using Cbz-Phe-Arg-AMC
T2 sequence (P07154 whole entry): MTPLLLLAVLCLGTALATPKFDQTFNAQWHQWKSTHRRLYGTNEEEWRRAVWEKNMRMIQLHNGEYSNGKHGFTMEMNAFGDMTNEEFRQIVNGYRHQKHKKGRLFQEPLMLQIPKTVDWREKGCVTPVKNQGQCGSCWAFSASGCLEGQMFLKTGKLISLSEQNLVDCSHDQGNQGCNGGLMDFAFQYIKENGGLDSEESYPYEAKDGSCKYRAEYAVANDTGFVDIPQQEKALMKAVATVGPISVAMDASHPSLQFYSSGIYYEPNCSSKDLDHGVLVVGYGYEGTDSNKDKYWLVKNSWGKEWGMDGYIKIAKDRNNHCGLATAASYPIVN

Cathepsin S = Cathepsin S (Homo sapiens, UniProt P25774); experiment: In vitro Inhibitory activity against Cathepsin S cysteine protease by using Cbz-Val-Val-Arg-AMC
Sequence of Cathepsin S (P25774 whole entry): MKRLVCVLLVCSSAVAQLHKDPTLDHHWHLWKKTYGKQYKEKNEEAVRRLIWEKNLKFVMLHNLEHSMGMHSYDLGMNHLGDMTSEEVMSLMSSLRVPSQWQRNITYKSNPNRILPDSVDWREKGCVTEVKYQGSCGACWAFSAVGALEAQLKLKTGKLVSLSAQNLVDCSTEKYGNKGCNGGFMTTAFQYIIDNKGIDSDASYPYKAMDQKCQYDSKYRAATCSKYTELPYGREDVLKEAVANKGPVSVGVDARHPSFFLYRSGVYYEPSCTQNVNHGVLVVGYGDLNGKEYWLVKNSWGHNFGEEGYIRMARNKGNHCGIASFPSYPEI

IC50 (Cathepsin B) | IC50 (Cathepsin K) | IC50 (Procathepsin L) | IC50 (Cathepsin S) | Structure (SMILES)
1.76 µM | 1.63 µM | 0.085 µM | 0.43 µM | O=C(N[C@@H](Cc1ccccc1)C(=O)N[C@@H]1C(=O)N2CCO[C@H]12)OCc1ccccc1
12.2 µM | 0.005 µM | 0.004 µM | 0.077 µM | O=C(N[C@@H](Cc1ccccc1)C(=O)N[C@@H]1C(=O)N2CCO[C@@H]12)OCc1ccccc1
> 50 µM | – | 1.83 µM | – | O=C(N[C@H](C(=O)N[C@@H]1C(=O)N2CCO[C@H]12)c1ccccc1)OCc1ccccc1
30 µM | 0.1 µM | 0.6 µM | 0.26 µM | CC(C)[C@H](NC(=O)OCc1ccccc1)C(=O)N[C@@H]1C(=O)N2CCO[C@H]12
> 50 µM | > 2.5 µM | 38 µM | > 2.5 µM | C[C@H](NC(=O)OCc1ccccc1)C(=O)N[C@@H]1C(=O)N2CCO[C@H]12
